Source: patent US20230226133A1, “METHOD FOR EXTRACTING CERAMIDE-CONTAINING MATERIAL OR CERAMIDE FROM WHOLE APPLES AND/OR APPLE JUICE EXTRACTION RESIDUE, AND COMPOSITION INCLUDING SAID CERAMIDE” (priority 2020, published 2023)

Columns and labels:
[1] = system: MEK/ERK signaling system in PC-12 cells; assay: MEK-ERK signaling system in neural model cells with MEK inhibitor (western blot); format: cell-based, rat; settings: UO126 10 μM added 30 minutes before 30 μg/mL ceramide-containing matter
Experimental: An inhibitor of MEK that was the upstream kinase of extracellular signal-regulated kinase (ERK1/2) was used to make an estimation of the effect of the ceramide-containing matter on the MEK/ERK signaling system in PC-12 cells. The PC-12 cells were cultured in a D-MEM culture medium containing 5% bovine serum and 5% horse serum. The MEK inhibitor UO126 was dissolved in dimethyl-sulfoxide (DMSO), and the resulting solution was added to the cells in such an amount as to give 10 μM, and 30 minutes after that, the ceramide-containing matter dissolved in DMSO was added to the cells in such an amount as to give 30 μg/mL for 10-minute culture. After culture, the cells were collected for estimation of the phosphorylation ERK1/2 (phospho ERK1/2) level important for memory formation by means of the western blot method using anti-phospho ERK1/2 antibody and/or anti-total ERK1/2 antibody. Note here that a sample treated with nobiletin (30 μM) was used as a positive control.

[2] = system: memory impairment caused by NMDA receptor blocker MK-801; assay: Passive avoidance test in MK-801 dementia model mice; format: in vivo; settings: MK-801 alone, 0.2 mg/kg body weight subcutaneous, DDY mice
Experimental: In this example, passive avoidance tests using dementia model mice having MK-801 administered thereto were carried out for estimation of effects of the ceramide-containing matter on memory impairments.
More specifically, 7 week old male DDY mice (available from Japan SLC, Inc.) were pre-fed for experimentation. The ceramide-containing matter suspended in an aqueous solution of 0.5% carboxymethyl cellulose sodium (CMC) was orally administrated to the mice once per day in a dose of 100 mg/kg body weight or 500 mg/kg body weight for six days. At the 7th and 8th days from the onset of administration, training and retention trials of passive avoidance testing were carried out. Ninety (90) minutes before the training trial of passive avoidance testing, 100 mg/kg body weight or 500 mg/kg body weight of the ceramide-containing matter or an aqueous solution of solvent 0.5% CMC were orally administrated to the mice, followed by subcutaneous administration of non-competitive NMDA receptor blocker MK-801 (0.2 mg/kg body weight) or a physiological saline solution 60-minute later. Thirty (30) minutes after that, training trial of passive avoidance testing was carried out, and after the elapse of 24 hours, retention testing was carried out. […]

Compound | rise of ERK1/2 phosphorylation level caused by the ceramide-containing matter, after MEK inhibitor pretreatment [1] | reaction latency in retention trial versus solvent control group [2]
N#CC(=C(/N)Sc1ccccc1N)/C(C#N)=C(/N)Sc1ccccc1N [UO126] | kept low | –
C[C@]12N[C@H](Cc3ccccc31)c1ccccc12 [MK-801] | – | significantly lower in the reaction latency
